Experimental data from ChEMBL document CHEMBL5303304, “EUbOPEN Chemogenomics Library - IncuCyte” (2023).

Key:
Type in all cases: toxicity, cell-based
[1] = system: Fibroblast; test: Incucyte cell viability with human fibroblast; details: 10 µM, compound concentration 10 uM
[2] = system: HEK-293T; test: Incucyte cell viability with HEK293T; details: human, 10 µM, compound concentration 10 uM
[3] = system: U2OS; test: Incucyte cell viability with U2OS; details: human, 10 µM, compound concentration 10 uM
Note: unitless GR value; below 1 slowed growth and below 0 cell loss.

Compound | Growth Rate ([1]; 6 h, replicate number 2) | Growth Rate ([1]; 12 h, replicate number 2) | Growth Rate ([1]; 18 h, replicate number 1) | Growth Rate ([1]; 18 h, replicate number 2) | Growth Rate ([2]; 0 h, replicate number 2) | Growth Rate ([2]; 6 h, replicate number 2) | Growth Rate ([3]; 0 h, replicate number 1) | Growth Rate ([3]; 24 h, replicate number 2) | Growth Rate ([2]; 6 h, replicate number 1) | Growth Rate ([2]; 12 h, replicate number 1) | Growth Rate ([2]; 12 h, replicate number 2) | Growth Rate ([2]; 18 h, replicate number 1) | Growth Rate ([2]; 18 h, replicate number 2) | Growth Rate ([3]; 6 h, replicate number 1) | Growth Rate ([3]; 6 h, replicate number 2) | Growth Rate ([3]; 12 h, replicate number 2) | Growth Rate ([3]; 18 h, replicate number 2) | Growth Rate ([1]; 24 h, replicate number 2) | Growth Rate ([3]; 0 h, replicate number 2) | Growth Rate ([3]; 24 h, replicate number 1) | other results
CC(C)c1cc(Br)c(NC(=O)Nc2cccnc2)c(Br)c1 | -0.99 | 0.73 | -0.82 | 0.89 | 0.91 | 0.84 | -0.34 | 0.98 |  |  |  |  |  |  |  |  |  |  |  |  | 
CC(C1CC2CCC1C2)n1c(S)nnc1-c1ccco1 (stereo unspecified) |  |  | -0.08 |  | 0.53 | 0.46 |  | 0.89 | 0.59 | 0.81 | 0.63 | 0.69 | 0.74 | 0.78 | 0.22 | 0.67 | 0.78 |  |  |  | Growth Rate ([1]; 12 h, replicate number 1): -1; Growth Rate ([2]; 24 h, replicate number 1): 0.75; Growth Rate ([2]; 24 h, replicate number 2): 0.81; Growth Rate ([3]; 12 h, replicate number 1): 0.97
CCCCCN1C(=O)C2(COc3cc4c(cc32)OCO4)c2ccccc21 (stereo unspecified) | -0.97 | 0.76 | -0.52 | 0.91 | 0.62 | 0.92 | -0.63 | 0.88 | 0.51 |  |  |  |  |  | 0.76 | 0.8 | 0.98 | 0.74 | -1 |  | Growth Rate ([1]; 24 h, replicate number 1): 0.82
CCN(c1ccccc1)c1cc(NC)[n+](C)c(C)n1.[Cl-] | -1 | 0.8 | -0.22 |  | 0.56 |  |  |  | 0.95 | 0.84 |  | 0.58 | 0.99 | 0.41 | 0.69 | 0.84 | 0.83 | 0.91 | -0.9 | 0.87 | Growth Rate ([1]; 0 h, replicate number 1): -0.7; Growth Rate ([1]; 24 h, replicate number 1): 0.44; Growth Rate ([2]; 24 h, replicate number 1): 0.79
COc1cc(NC(=O)c2ccc(-c3ccc(Cl)cc3)o2)cc(OC)c1 | -1 | 0.03 | 0.5 | 0.54 | 0.52 |  | 0.66 | 0.79 | 0.31 |  |  |  |  |  | 0.2 | 0.72 | 0.89 | 0.45 |  | 0.98 | Growth Rate ([1]; 0 h, replicate number 1): 0.51
C[C@@H](CN1CCC(Cc2ccccc2)CC1)[C@@H](O)c1ccc(O)cc1 | -0.45 | 0.48 |  | 0.53 | 0.98 | 0.36 | -0.54 |  |  |  | 0.86 |  |  | 0.07 |  |  | 0.99 | 0.68 | -0.81 | 0.96 | Growth Rate ([1]; 6 h, replicate number 1): -0.49; Growth Rate ([1]; 12 h, replicate number 1): -0.59; Growth Rate ([1]; 24 h, replicate number 1): 0.78; Growth Rate ([3]; 12 h, replicate number 1): 0.85; Growth Rate ([3]; 18 h, replicate number 1): 0.98
Cc1cc(-c2nncc3c(C(C)(C)C)c(OCc4ncnn4C)nn23)no1 | -0.97 | 0.98 | 0.1 | 0.78 | 0.72 | 0.78 |  | 0.86 | 0.14 | 0.35 | 0.53 | 0.1 | 0.57 | 0.85 | 0.23 | 0.67 | 0.71 | 0.87 | -0.99 | 0.93 | Growth Rate ([1]; 0 h, replicate number 1): -0.5; Growth Rate ([1]; 6 h, replicate number 1): 1; Growth Rate ([1]; 24 h, replicate number 1): 0.26; Growth Rate ([2]; 24 h, replicate number 1): 0.14; Growth Rate ([2]; 24 h, replicate number 2): 0.61; Growth Rate ([3]; 18 h, replicate number 1): 0.82
COCCNc1cc(NC(=O)N2CCCc3cc(CN4CCOCC4=O)c(C=O)nc32)ncc1C#N | -1 | 0.58 | -0.07 |  | 0.81 |  | -0.03 |  | 0.42 |  |  |  |  | 0.95 |  |  |  | 0.95 |  |  | Growth Rate ([1]; 6 h, replicate number 1): 0.86; Growth Rate ([1]; 12 h, replicate number 1): -1; Growth Rate ([1]; 24 h, replicate number 1): 0.7
CC(C)(C)C1CCc2c(sc(NC(=O)c3ccco3)c2C(=O)O)C1 (stereo unspecified) | -0.97 | 0.65 | -0.68 |  | 0.67 | 0 |  | 0.84 | -0.05 | -0.04 | -0.11 | -0.24 | -0.17 | -0.02 | 0.95 | 0.8 | 0.79 |  | -1 |  | Growth Rate ([1]; 0 h, replicate number 1): -0.35; Growth Rate ([1]; 0 h, replicate number 2): -0.91; Growth Rate ([1]; 6 h, replicate number 1): 0.79; Growth Rate ([1]; 12 h, replicate number 1): -1; Growth Rate ([2]; 24 h, replicate number 1): -0.21; Growth Rate ([2]; 24 h, replicate number 2): -0.13
Cn1c(=O)n(CCCO)c(=O)c2c1nc(Oc1cccc(Cl)c1)n2Cc1ccc(Cl)cc1 | -0.99 | 0.66 | 0.33 |  | 0.3 | 0.26 |  | 0.89 |  |  | 0.77 |  | 0.84 | 0.38 |  | 0.93 | 0.82 | 0.85 |  | 0.94 | Growth Rate ([2]; 24 h, replicate number 2): 0.83; Growth Rate ([3]; 18 h, replicate number 1): 0.86
COc1cc([N+](=O)[O-])ccc1NC(=O)c1ccccc1O |  | 0.57 |  | 0.65 | 0.91 | -0.12 | 0.1 | 0.55 | -0.49 | -0.12 | -0.05 | -0.01 | -0.02 | 0.2 | 0.94 | 0.63 | 0.46 | 0.64 | -0.67 | 0.48 | Growth Rate ([1]; 0 h, replicate number 2): 0.04; Growth Rate ([1]; 6 h, replicate number 1): -0.98; Growth Rate ([2]; 24 h, replicate number 1): 0.08; Growth Rate ([2]; 24 h, replicate number 2): -0.01; Growth Rate ([3]; 12 h, replicate number 1): 0.27; Growth Rate ([3]; 18 h, replicate number 1): 0.4
